We go through nine compounds from US11958861B2, “Spirocyclic lactams as JAK2 V617F inhibitors” (Incyte Corporation, priority 2021, dated 2024).

Where a name gives a salt, the structure may show the parent alone. Some results are limits rather than exact numbers.

The target in assay [1] is T1, pseudo-kinase domain (JH2, amino-acids 536-812) of human Wild Type JAK2 (Homo sapiens, UniProt O60674, F794H/W659A/W777A).
T1 construct: pseudo-kinase domain (JH2, amino-acids 536-812 with 3 surface mutations W659A, W777A, F794H); purchased BPS Bioscience 79463; host or cells: baculovirus expression system
Kind of assay: JAK2 LanthaScreen JH2-WT Binding Assay. As to conditions: 1 hour at 25° C. The protocol: Example B. JAK2 LanthaScreen JH2-WT Binding Assay
(§1) JAK2 JH2-WT binding assay utilizes pseudo-kinase domain (JH2, amino-acids 536-812 with 3 surface mutations W659A, W777A, F794H) of human Wild Type JAK2 expressed as C-terminal His-Avi-tagged, biotinylated protein in a baculovirus expression system (BPS Bioscience, Catalog #79463). The assay was conducted in black 384-well polystyrene plates in a final reaction volume of 20 μL. JAK2 JH2-WT (0.145 nM) was incubated with compounds (100 nL serially diluted in DMSO) in the presence of 50 nM Fluorescent JAK2-JH2 Tracer (MedChem Express Catalog #HY-102055) and 0.25 nM Streptavidin-Tb cryptate (Cisbio Part #610SATLB) in assay buffer (50 mM Tris, pH=7.5, 10 mM MgCl2, 0.01% Brij-35, 0.1% BSA, 1 mM EGTA, 5% Glycerol and 5 mM DTT). Non-specific binding was accessed in the presence of 2 mM ATP. After incubation for 1 hour at 25° C., LanthaScreen signals were read on a PHERAstar FS plate reader (BMG LABTECH). Data was analyzed with IDBS XLfit and GraphPad Prism 5.0 software using a four parameter dose response curve to determine IC50 for each compound.
On the technique in general: Time-resolved FRET reads energy transfer from a long-lived donor to a nearby acceptor.

In assay [2] the target is T2, pseudo-kinase domain (JH2, amino-acids 536-812) of human V617F mutant JAK2 (Homo sapiens, UniProt O60674, F794H/V617F/W659A/W777A).
T2 construct: pseudo-kinase domain (JH2, amino-acids 536-812 with 3 surface mutations W659A, W777A, F794H); purchased BPS Bioscience 79498; host or cells: baculovirus expression system
Kind of assay: JAK2 LanthaScreen JH2-V617F Binding Assay. Particulars: 1 hour at 25° C. The protocol:
Example C. JAK2 LanthaScreen JH2-V617F Binding Assay
as §1, with “JH2-V617F” for “JH2-WT”, “V617F mutant” for “Wild Type”, “#79498).” for “#79463).”, “JH2-V617F (0.26” for “JH2-WT (0.145”

The target in assay [3] is T3, catalytic domain (JH1, amino acids 826-1132) of human JAK2 (Homo sapiens, UniProt O60674).
T3 construct: catalytic domain (JH1, amino acids 826-1132) of human JAK2; purchased Carna Biosciences 08-445-20N; host or cells: baculovirus expression system
Put plainly: JAK2 LanthaScreen JH1 Binding Assay. Particulars: 2 hours at 25° C. How it is done:
Example A. JAK2 LanthaScreen JH1 Binding Assay
JAK2 JH1 binding assay utilizes catalytic domain (JH1, amino acids 826-1132) of human JAK2 expressed as N-terminal FLAG-tagged, biotinylated protein in a baculovirus expression system (Carna Biosciences, Product #08-445-20N). The assay was conducted in black 384-well polystyrene plates in a final reaction volume of 20 μL. JAK2 JH1 (1.5 nM) was incubated with compounds (100 nL serially diluted in DMSO) in the presence of 50 nM Fluorescent JAK2-JH1 Tracer and 0.5 nM Streptavidin-Tb cryptate (Cisbio Part #610SATLB) in assay buffer (50 mM Tris, pH=7.5, 10 mM MgCl2, 0.01% Brij-35, 0.1% BSA, 1 mM EGTA, 5% Glycerol and 5 mM DTT). Non-specific binding was accessed in the presence of 2 mM ATP. After incubation for 2 hours at 25° C., LanthaScreen signals were read on a PHERAstar FS plate reader (BMG LABTECH). Data was analyzed with IDBS XLfit and GraphPad Prism 5.0 software using a four parameter dose response curve to determine IC50 for each compound.

Assay [4] deals with T4, catalytic domain (JH1, amino acids 808-1132) of human JAK2 (Homo sapiens, UniProt O60674).
T4 construct: catalytic domain (JH1, amino acids 808-1132) of human JAK2; His (N); purchased BPS Bioscience 40450; host or cells: baculovirus expression system
Put plainly: JAK2 HTRF Enzyme Activity Assay. Particulars: ATP 30 μM, read-out: ENZ 30UMATP. Format: biochemical. How it is done:
Example D. JAK2 HTRF Enzyme Activity Assay
JAK2 enzyme activity assays utilize catalytic domain (JH1, amino acids 808-1132) of human JAK2 expressed as N-terminal His-tagged protein in a baculovirus expression system (BPS Bioscience, Catalog #40450). The assays was conducted in black 384-well polystyrene plates in a final reaction volume of 20 μL. JAK2 (0.015 nM) was incubated with compounds (100 nL serially diluted in DMSO) in the presence of ATP (30 μM or 1 mM) and 500 nM Biotin-labeled […] (SEQ ID NO.: 1) peptide (BioSource International, custom synthesis) in assay buffer (50 mM Tris, pH=7.5, 10 mM MgCl2, 0.01% Brij-35, 0.1% BSA, 1 mM EGTA, 5% Glycerol and 5 mM DTT) for 60 minutes at 25° C. The reactions were stopped by the addition of 10 μL of detection buffer (50 mM Tris, pH 7.8, 0.5 mg/mL BSA, 150 mM NaCl), supplemented with EDTA, LANCE Eu-W1024 anti-phosphotyrosine (PY20), (PerkinElmer, Catalog #AD0067) and Streptavidin SureLight APC (PerkinElmer Catalog #CR130-100), for a final concentration of 15 mM, 1.5 nM and 75 nM, respectively. HTRF signals were read after 30 minutes incubation at room temperature on a PHERAstar FS plate reader (BMG LABTECH). Data was analyzed with IDBS XLfit and GraphPad Prism 5.0 software using a four parameter dose response curve to determine IC50 for each compound.

T1 sequence (O60674 536-812 W659A/W777A/F794H): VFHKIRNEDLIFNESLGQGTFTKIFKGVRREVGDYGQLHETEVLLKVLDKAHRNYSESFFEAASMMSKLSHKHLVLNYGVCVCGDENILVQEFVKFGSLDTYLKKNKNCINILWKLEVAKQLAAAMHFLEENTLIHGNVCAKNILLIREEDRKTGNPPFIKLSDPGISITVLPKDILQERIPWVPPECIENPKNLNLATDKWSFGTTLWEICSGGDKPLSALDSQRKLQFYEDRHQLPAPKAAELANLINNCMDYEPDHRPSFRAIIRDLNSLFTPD
T3 sequence (O60674 826-1132): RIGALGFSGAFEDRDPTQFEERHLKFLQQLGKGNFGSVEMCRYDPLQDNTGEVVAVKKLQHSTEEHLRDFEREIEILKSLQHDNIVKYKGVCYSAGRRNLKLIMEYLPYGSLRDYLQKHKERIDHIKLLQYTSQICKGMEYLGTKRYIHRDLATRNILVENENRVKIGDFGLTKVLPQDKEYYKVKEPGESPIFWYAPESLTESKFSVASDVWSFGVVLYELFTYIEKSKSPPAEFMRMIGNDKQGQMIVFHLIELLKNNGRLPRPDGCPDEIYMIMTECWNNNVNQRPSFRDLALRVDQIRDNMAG
T4 sequence (O60674 808-1132): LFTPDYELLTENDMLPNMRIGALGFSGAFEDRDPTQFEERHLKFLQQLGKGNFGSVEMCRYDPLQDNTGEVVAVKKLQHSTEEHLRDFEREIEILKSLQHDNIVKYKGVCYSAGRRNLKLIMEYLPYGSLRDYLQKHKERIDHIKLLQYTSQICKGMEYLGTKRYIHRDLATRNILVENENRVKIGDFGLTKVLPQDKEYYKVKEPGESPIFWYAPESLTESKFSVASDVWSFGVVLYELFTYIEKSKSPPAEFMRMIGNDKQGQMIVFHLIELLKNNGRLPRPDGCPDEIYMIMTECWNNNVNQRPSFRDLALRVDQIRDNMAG
T2 sequence (O60674 536-812 V617F/W659A/W777A/F794H): as the sequence (O60674 536-812 W659A/W777A/F794H) above, with V82F counted along it

Consider “1-(Ethylsulfonyl)-2″-(3-methoxy-1-methyl-1H-pyrazol-4-yl)-6″-methyl-1″-(1-(methyl-d3)-1H-indazol-5-yl)-3″,6″-dihydro-7″H-dispiro[azetidine-3,1′-cyclobutane-3′,8″-dipyrrolo[2,3-b:3′,2′-d]pyridin]-7″-one, trifluoroacetate salt [Example 99]”, for which the IC50 in assay [1] was not above 100 nM; in assay [2] it was not above 100 nM; in assay [3], more than 2500 nM.

“2′-(1-(1-Cyclopropylethyl)-1H-pyrazol-4-yl)-1-(ethylsulfonyl)-6′-(methyl-d3)-r-(1-methyl-1H-indazol-5-yl)-3′,6′-dihydro-7′H-spiro[azepane-4,8′-dipyrrolo[2,3-b:3′,2′-d]pyridin]-7′-one, trifluoroacetate salt [Example 104]”: the IC50 in assay [1] was not above 100 nM; in assay [2], not above 100 nM; in assay [3] it was 100 to 500 nM; in assay [4], 100 to 500 nM.

Turning to `CN1C(=O)C2(CCOC2)c2c1cnc1[nH]c(-c3ccc(CN4CCC(S(C)(=O)=O)CC4)cc3)c(-c3ccccc3)c21` (racemic) [Example 2, 6-Methyl-2-(4-((4-(methylsulfonyl)piperidin-1-yl)methyl)phenyl)-1-phenyl-3,4′,5′,6-tetrahydro-2′H,7H-spiro[dipyrrolo[2,3-b:3′,2′-d]pyridine-8,3′-furan]-7-one trifluoroacetate salt], the IC50 was not above 100 nM in assay [1], not above 100 nM in assay [2], more than 2500 nM in assay [3] and more than 2500 nM in assay [4].

For `CN1C(=O)C2(CCN(C(=O)CC3CCOCC3)C2)c2c1cnc1[nH]c(-c3ccc(CN4CCC(S(C)(=O)=O)CC4)cc3)c(-c3ccccc3)c21` (racemic) [Example 12, 6-Methyl-2-(4-((4-(methylsulfonyl)piperidin-1-yl)methyl)phenyl)-1-phenyl-1′-(2-(tetrahydro-2H-pyran-4-yl)acetyl)-3,6-dihydro-7H-spiro[dipyrrolo[2,3-b:3′,2′-d]pyridine-8,3′-pyrrolidin]-7-one trifluoroacetate salt], the IC50 in assay [1] is 100 to 500 nM; in assay [2], 100 to 500 nM; in assay [3], more than 2500 nM; in assay [4], more than 2500 nM.

`[2H]C([2H])([2H])n1ncc2cc(-c3c(-c4cnn(C)c4)[nH]c4ncc5c(c34)[C@@]3(CC[C@H](NC(=O)C4(CC(N)=O)CCC4)C3)C(=O)N5C)ccc21` (racemic) [Example 100, trifluoroacetate salt]: the IC50 in assay [1] was 500 to 1250 nM; in assay [2], 500 to 1250 nM; in assay [3], more than 2500 nM.

`CO[C@H]1CC[C@@](CC#N)(N2CCC3(CC2)C(=O)N(C)c2cnc4[nH]c(-c5cnn(C)c5)c(-c5ccc6c(cnn6C)c5)c4c23)CC1` (single isomer, unassigned) [Example 75b, 2-(4-Methoxy-1-(6-methyl-1-(1-methyl-1H-indazol-5-yl)-2-(1-methyl-1H-pyrazol-4-yl)-7-oxo-6,7-dihydro-3H-spiro[dipyrrolo[2,3-b:3′,2′-d]pyridine-8,4′-piperidin]-1′-yl)cyclohexyl)acetonitrile]: the IC50 was not above 100 nM in assay [2], 500 to 1250 nM in assay [3] and 500 to 1250 nM in assay [4].

Turning to `O=C(O)C(F)(F)F.[2H]C([2H])([2H])n1ncc2cc(-c3c(-c4cnn5c4OCCC5)[nH]c4ncc5c(c34)C3(CC4(CN(S(=O)(=O)CC)C4)C3)C(=O)N5C)ccc21` [Example 98, 2″-(6,7-Dihydro-5H-pyrazolo[5,1-b][1,3]oxazin-3-yl)-1-(ethylsulfonyl)-6″-methyl-1″-(1-(methyl-d3)-1H-indazol-5-yl)-3″,6″-dihydro-7″H-dispiro[azetidine-3,1′-cyclobutane-3′,8″-dipyrrolo[2,3-b:3′,2′-d]pyridin]-7″-one, trifluoroacetate salt], the IC50 in assay [1] was not above 100 nM; in assay [2], not above 100 nM; in assay [3] it was more than 2500 nM.

As for `O=C(O)C(F)(F)F.[2H]C([2H])([2H])n1ccc(-c2[nH]c3ncc4c(c3c2-c2ccc3c(cnn3C)c2)C2(CC3(CCN(C(=O)CCC)CC3)C2)C(=O)N4C)c1` [Example 101, 1″-Butyryl-6-methyl-1-(1-methyl-1H-indazol-5-yl)-2-(1-(methyl-d3)-1H-pyrrol-3-yl)-3,6-dihydro-7H-dispiro[dipyrrolo[2,3-b:3′,2′-d]pyridine-8,1′-cyclobutane-3′,4″-piperidin]-7-one, trifluoroacetate salt], the figures for the IC50 in assay [1], in assay [2] and in assay [3] were not above 100 nM, not above 100 nM and 1250 to 2500 nM, respectively.

`O=C(O)C(F)(F)F.[2H]C([2H])([2H])n1ccc(-c2[nH]c3ncc4c(c3c2-c2ccc3c(cnn3C([2H])([2H])[2H])c2)C2(CC3(CCN(C(=O)CCC)CC3)C2)C(=O)N4C)c1` [Example 102, 1″-Butyryl-6-methyl-1-(1-(methyl-d3)-1H-indazol-5-yl)-2-(1-(methyl-d3)-1H-pyrrol-3-yl)-3,6-dihydro-7H-dispiro[dipyrrolo[2,3-b:3′,2′-d]pyridine-8,1′-cyclobutane-3′,4″-piperidin]-7-one, trifluoroacetate salt]: the IC50 in assay [1] was not above 100 nM; in assay [2], not above 100 nM; in assay [3], more than 2500 nM.
